From PubChem BioAssay AID330 (DTP/NCI, 2004)
Where “and” joins values, the source holds several entries; their conditions need not be identical. Equal entries are not always repeated. Inconclusive results and toxic doses are left out. Rule for the calls: active = survival T/C of 150% or more; inactive = T/C below 125% in these data.

Test system: P388 leukemia ip, CD2F1 mice, survival T/C
Experiment: NCI In Vivo Anticancer Drug Screen. Data for tumor model P388 Leukemia (intraperitoneal) in CD2F1 (CDF1) mice
Details: endpoint: median survival time, higher = longer survival
Summary of the method: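 Mice carrying the transplanted tumor received test compound or vehicle. Survival was recorded in each group, and the value is the treated-group measurement divided by that of the vehicle-treated control group.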

[1] = dose: 50.0 mg/kg/injection, schedule: Q01DX009 (ip), vehicle: saline with Tween-80
[2] = dose: 100.0 mg/kg/injection, schedule: Q01DX009 (ip), vehicle: saline with Tween-80
[3] = dose: 60.0 mg/kg/injection, schedule: Q01DX005 (ip), vehicle: saline with Tween-80
[4] = dose: 120.0 mg/kg/injection, schedule: Q01DX005 (ip), vehicle: saline with Tween-80
[5] = dose: 240.0 mg/kg/injection, schedule: Q01DX005 (ip), vehicle: saline with Tween-80
[6] = dose: 200.0 mg/kg/injection, schedule: Q01DX009 (ip), vehicle: saline with Tween-80
[7] = dose: 100.0 mg/kg/injection, schedule: Q04DX003 (ip), vehicle: saline with Tween-80

Measured: T/C

CCCNC1=C(C)C(=O)C2=C(C1=O)[C@H](COC(N)=O)[C@]1(OC)[C@@H]3N[C@@H]3CN21
inactive: dose: 6.25 mg/kg/injection, schedule: Q01DX009 (ip), vehicle: saline sonified 86 % of control | dose: 12.5 mg/kg/injection, schedule: Q04DX003 (ip), vehicle: saline with Tween-80 86 % of control

O=C1CCCN1C(=O)c1ccccc1
inactive: dose: 18.8 mg/kg/injection, schedule: Q01DX001 (ip), vehicle: saline sonified 105 % of control | dose: 37.5 mg/kg/injection, schedule: Q01DX001 (ip), vehicle: saline sonified 120 % of control | dose: 75.0 mg/kg/injection, schedule: Q01DX001 (ip), vehicle: saline sonified 105 % of control

Nc1ncnc2c1cnn2Cc1ccc(Cl)cc1
inactive: [1] 100 % of control | [2] 100 % of control

C=C(CC(=O)Nc1nc(C)c(C(=O)OC)s1)C(=O)O
inactive: dose: 12.5 mg/kg/injection, schedule: Q01DX009 (ip), vehicle: saline with Tween-80 107 % of control | dose: 25.0 mg/kg/injection, schedule: Q01DX009 (ip), vehicle: saline with Tween-80 100 % of control | [1] 105 % of control | dose: 50.0 mg/kg/injection, schedule: Q01DX009 (ip), vehicle: saline 99 % of control | dose: 200.0 mg/kg/injection, schedule: Q01DX009 (ip), vehicle: saline 96 % of control

O=Cc1cccc[n+]1Cc1ccc2c(c1)OCO2
inactive: dose: 25.0 mg/kg/injection, schedule: Q01DX009 (ip), vehicle: distilled water + Tween-80 100 % of control | dose: 50.0 mg/kg/injection, schedule: Q01DX009 (ip), vehicle: distilled water + Tween-80 100 % of control

CCOC(=O)c1ccc(N/N=C\C(C)=N/NC(=S)NC)cc1
inactive: dose: 100.0 mg/kg/injection, schedule: Q01DX001 (ip), vehicle: saline 108 % of control | dose: 200.0 mg/kg/injection, schedule: Q01DX001 (ip), vehicle: saline 108 % of control | dose: 400.0 mg/kg/injection, schedule: Q01DX001 (ip), vehicle: saline 100 % of control

Nc1nc(-c2ccccc2)c(CC(=O)O)c(-c2nc(N)nc(-c3ccccc3)c2CC(=O)O)n1
inactive: [3] 100 % of control | [4] 100 % of control | [5] 86 % of control

NC(=S)c1ccc(C=NCc2ccccc2)cc1
inactive: dose: 100.0 mg/kg/injection, schedule: Q04DX002 (ip), vehicle: Klucel (hydroxypropylcellulose) (HPC) 100 % of control | dose: 200.0 mg/kg/injection, schedule: Q04DX002 (ip), vehicle: Klucel (hydroxypropylcellulose) (HPC) 100 % of control | dose: 400.0 mg/kg/injection, schedule: Q04DX002 (ip), vehicle: Klucel (hydroxypropylcellulose) (HPC) 100 % of control

CCOC(=O)CC1CCCN1 (centres undefined)
inactive: dose: 25.0 mg/kg/injection, schedule: Q01DX005 (ip), vehicle: saline 110 % of control | dose: 50.0 mg/kg/injection, schedule: Q01DX005 (ip), vehicle: saline 101 % of control | dose: 100.0 mg/kg/injection, schedule: Q01DX005 (ip), vehicle: saline 97 % of control | dose: 200.0 mg/kg/injection, schedule: Q01DX005 (ip), vehicle: saline 106 % of control

CC(=O)O.[Bi]
inactive: dose: 60.0 mg/kg/injection, schedule: Q01DX005 (ip), vehicle: Klucel (hydroxypropylcellulose) (HPC) 97 % of control | dose: 120.0 mg/kg/injection, schedule: Q01DX005 (ip), vehicle: Klucel (hydroxypropylcellulose) (HPC) 96 % of control | dose: 240.0 mg/kg/injection, schedule: Q01DX005 (ip), vehicle: Klucel (hydroxypropylcellulose) (HPC) 99 % of control

CCc1cccc(C)c1NC(=O)C(=O)CC(=O)CS(=O)(=O)c1ccc(C)cc1
inactive: [3] 109 % of control | [4] 111 % of control | [5] 104 % of control

S=C(Nc1ccccc1)P(C(=S)Nc1ccccc1)C1CCCCC1
inactive: dose: 50.0 mg/kg/injection, schedule: Q01DX005 (ip), vehicle: Klucel (hydroxypropylcellulose) (HPC) 108 % of control | dose: 100.0 mg/kg/injection, schedule: Q01DX005 (ip), vehicle: Klucel (hydroxypropylcellulose) (HPC) 101 % of control | dose: 200.0 mg/kg/injection, schedule: Q01DX005 (ip), vehicle: Klucel (hydroxypropylcellulose) (HPC) 99 % of control

CCn1c(=O)c2[nH]c(Br)nc2n(C2CC2)c1=O
inactive: dose: 50.0 mg/kg/injection, schedule: Q01DX009 (ip), vehicle: Klucel (hydroxypropylcellulose) (HPC) 104 % of control | dose: 100.0 mg/kg/injection, schedule: Q01DX009 (ip), vehicle: Klucel (hydroxypropylcellulose) (HPC) 106 % of control

COC(=O)C1CCc2c(cnn2-c2ccccn2)C1 (centres undefined)
inactive: [1] 97 % of control | [2] 101 % of control | [6] 100 % of control

C=C(CN(C)C)C(=O)c1ccccc1
inactive: dose: 0.94 mg/kg/injection, schedule: Q01DX005 (ip), vehicle: saline 122 % of control | dose: 1.25 mg/kg/injection, schedule: Q01DX005 (ip), vehicle: saline 112 % of control | dose: 1.88 mg/kg/injection, schedule: Q01DX005 (ip), vehicle: saline 112 % of control | dose: 2.5 mg/kg/injection, schedule: Q01DX005 (ip), vehicle: saline 112 % of control | dose: 3.75 mg/kg/injection, schedule: Q01DX005 (ip), vehicle: saline 99 % of control and 97 % of control | dose: 5.0 mg/kg/injection, schedule: Q01DX005 (ip), vehicle: saline 98 % of control and 104 % of control

O=C(Nc1ccc(Cl)cc1)OCC12COCN1COC2
inactive: [1] 87 % of control | [2] 95 % of control

NCCCCC(NC(=O)c1ccccc1)C(=O)O (centres undefined)
inactive: [1] 98 % of control | [2] 100 % of control | [6] 104 % of control

Cc1nn(C(=O)c2ccncc2)c(C)c1N=Nc1ccc(S(=O)(=O)Nc2nccs2)cc1
inactive: dose: 100.0 mg/kg/injection, schedule: Q04DX003 (ip), vehicle: saline 96 % of control | dose: 200.0 mg/kg/injection, schedule: Q04DX003 (ip), vehicle: saline 97 % of control | dose: 400.0 mg/kg/injection, schedule: Q04DX003 (ip), vehicle: saline 110 % of control

Cc1cc(NCCCCCCNc2cc(C)nc3cc([N+](=O)[O-])ccc23)c2ccc([N+](=O)[O-])cc2n1
inactive: dose: 50.0 mg/kg/injection, schedule: Q01DX009 (ip), vehicle: other 98 % of control | dose: 100.0 mg/kg/injection, schedule: Q01DX009 (ip), vehicle: other 99 % of control | dose: 200.0 mg/kg/injection, schedule: Q01DX009 (ip), vehicle: other 96 % of control | dose: 400.0 mg/kg/injection, schedule: Q01DX009 (ip), vehicle: other 103 % of control

CCCCn1c(Cl)c(/C=N\Nc2ccc([N+](=O)[O-])cc2)c2ccccc21
inactive: dose: 25.0 mg/kg/injection, schedule: Q01DX001 (ip), vehicle: saline with Tween-80 86 % of control | dose: 100.0 mg/kg/injection, schedule: Q01DX001 (ip), vehicle: saline with Tween-80 103 % of control and 94 % of control

O=C(O)CCCNC1=CC(=O)c2ccccc2C1=O
inactive: dose: 25.0 mg/kg/injection, schedule: Q04DX003 (ip), vehicle: saline with Tween-80 101 % of control | dose: 50.0 mg/kg/injection, schedule: Q04DX003 (ip), vehicle: saline with Tween-80 104 % of control | [7] 102 % of control and 86 % of control

COc1ccccc1N1C(=O)CSC1=S
inactive: [2] 86 % of control | [7] 90 % of control | [6] 90 % of control | dose: 200.0 mg/kg/injection, schedule: Q04DX003 (ip), vehicle: saline with Tween-80 90 % of control | dose: 400.0 mg/kg/injection, schedule: Q04DX003 (ip), vehicle: saline with Tween-80 100 % of control
